Converted amounts (≈) assume the structure as drawn. Read-outs that look alike come from different tables or passages of the source.
Tests used:
[1] = tested on: Acinetobacter baumannii (MDR ACB, Libya, V4); assay: MIC-assay, Mueller-Hinton broth with G-block alginate, 384-well, OD600
[2] = tested on: Burkholderia cepacia (LMG18941, ATCC-BAA-246); assay: as above
[3] = tested on: Pseudomonas aeruginosa (R22, PSA, V1); assay: as above
[4] = tested on: Acinetobacter lwoffii (Egypt, V10); assay: as above
[5] = tested on: Pseudomonas aeruginosa (MDR 301, PSA, V2); assay: as above
[6] = tested on: Staphylococcus aureus (MRSA) U50; assay: MIC-assay, Mueller-Hinton broth with G-block alginate, 384-well, OD600 (Table 12); format: cell-based; settings: MRSA 1040s, U50 MDR, read-out: MIC
Description: (§1) Minimum inhibitory concentration (MICs) of different antibiotics for strains of Streptococcus oralis and Staphylococcus aureus (MRSA) displaying MDR phenotypes in the presence of varying concentrations of OligoCF-5/20 (0-10%). (MIC values are expressed in μg ml^−1).

Streptococcus oralis = assay: as above; format: cell-based; settings: Streptococcus oralis (5610, V17) MDR, read-out: MIC
Description: as §1

[7] = tested on: Acinetobacter lwoffii (6056, V22); assay: MIC-assay, Mueller-Hinton broth with G-block alginate, 384-well, OD600
[8] = tested on: strains of E. coli displaying MDR phenotypes; assay: MIC-assay, Mueller-Hinton broth with G-block alginate, 384-well, OD600 (Table 11); format: cell-based; settings: Escherichia coli, Escherichia coli (5702, Wales, V11) MDR, read-out: MIC
Description: (§2) Minimum inhibitory concentration (MICs) of different antibiotics for strains of E. coli and Providencia stuartii displaying MDR phenotypes in the presence of varying concentrations of OligoCF-5/20 (0-10%). (MIC values are expressed in μg ml^−1).

MDR Providencia stuartii = assay: as above; format: cell-based; settings: Providencia stuartii (IR57 India, V7) MDR
Description: as §2

[9] = Table 9, G-block (OligoCF-5/20) 0%
[10] = Table 9, G-block (OligoCF-5/20) 2%
[11] = Table 9, G-block (OligoCF-5/20) 6%
[12] = Table 9, G-block (OligoCF-5/20) 10%
[13] = ATCCBAA246|LMG18941, Table 8, G-block (OligoCF-5/20) 0%
[14] = ATCCBAA246|LMG18941, Table 8, G-block (OligoCF-5/20) 2%
[15] = ATCCBAA246|LMG18941, Table 8, G-block (OligoCF-5/20) 6%
[16] = ATCCBAA246|LMG18941, Table 8, G-block (OligoCF-5/20) 10%
[17] = Table 8, G-block (OligoCF-5/20) 0%
[18] = Table 8, G-block (OligoCF-5/20) 2%
[19] = Table 8, G-block (OligoCF-5/20) 6%
[20] = Table 8, G-block (OligoCF-5/20) 10%
[21] = Pseudomonas aeruginosa, Table 8, V2, G-block (OligoCF-5/20) 0%
[22] = Pseudomonas aeruginosa, Table 8, V2, G-block (OligoCF-5/20) 2%
[23] = Pseudomonas aeruginosa, Table 8, V2, G-block (OligoCF-5/20) 6%
[24] = Pseudomonas aeruginosa, Table 8, V2, G-block (OligoCF-5/20) 10%

Row | Structure (SMILES) | MIC [1, 9] | MIC [1, 10] | MIC [1, 11] | MIC [1, 12] | MIC [2, 13] | MIC [2, 14] | MIC [2, 15] | MIC [2, 16] | MIC [3, 17] | MIC [3, 18] | MIC [3, 19] | MIC [3, 20] | MIC [4, 9] | MIC [4, 10] | MIC [4, 11] | MIC [4, 12] | MIC [5, 21] | MIC [5, 22] | MIC ([6]; G-block (OligoCF-5/20) 0%) | MIC ([6]; G-block (OligoCF-5/20) 2%) | other results
1 | CC[C@H]1OC(=O)[C@H](C)[C@@H](O[C@H]2C[C@@](C)(OC)[C@@H](O)[C@H](C)O2)[C@H](C)[C@@H](O[C@@H]2O[C@H](C)C[C@H](N(C)C)[C@H]2O)[C@](C)(O)C[C@@H](C)[C@@H]2N[C@@H](COCCOC)O[C@H]([C@H]2C)[C@]1(C)O [Dirithromycin] | 64 µg/mL (≈ 76.6 µM) | 8 µg/mL (≈ 9.58 µM) | 2 µg/mL (≈ 2.39 µM) | < 1 µg/mL | 512 µg/mL (≈ 613 µM) | 256 µg/mL (≈ 307 µM) | 256 µg/mL (≈ 307 µM) | 256 µg/mL (≈ 307 µM) | > 512 µg/mL | > 512 µg/mL | 512 µg/mL (≈ 613 µM) | 256 µg/mL (≈ 307 µM) | < 1 µg/mL | < 1 µg/mL | < 1 µg/mL | < 1 µg/mL | > 512 µg/mL | > 512 µg/mL | 1020 µg/mL (≈ 1230 µM) | 512 µg/mL (≈ 613 µM) | MIC [5, 23]: 512 µg/mL (≈ 613 µM); MIC [5, 24]: 512 µg/mL (≈ 613 µM); MIC ([6]; G-block (OligoCF-5/20) 6%): 512 µg/mL (≈ 613 µM); MIC ([6]; G-block (OligoCF-5/20) 10%): 256 µg/mL (≈ 307 µM); MIC (Streptococcus oralis; G-block (OligoCF-5/20) 0%): 4 µg/mL (≈ 4.79 µM); MIC (Streptococcus oralis; G-block (OligoCF-5/20) 2%): 4 µg/mL (≈ 4.79 µM); MIC (Streptococcus oralis; G-block (OligoCF-5/20) 6%): < 0.0312 µg/mL; MIC (Streptococcus oralis; G-block (OligoCF-5/20) 10%): 0.0312 µg/mL (≈ 0.0374 µM); MIC [7, 9]: < 2 µg/mL; MIC [7, 10]: < 2 µg/mL; MIC [7, 11]: < 2 µg/mL; MIC [7, 12]: < 2 µg/mL; MIC ([8]; G-block (OligoCF-5/20) 0%): 128 µg/mL (≈ 153 µM); MIC ([8]; G-block (OligoCF-5/20) 2%): 64 µg/mL (≈ 76.6 µM); MIC ([8]; G-block (OligoCF-5/20) 6%): 32 µg/mL (≈ 38.3 µM); MIC ([8]; G-block (OligoCF-5/20) 10%): 64 µg/mL (≈ 76.6 µM); MIC (MDR Providencia stuartii; G-block (OligoCF-5/20) 0%): 8 µg/mL (≈ 9.58 µM); MIC (MDR Providencia stuartii; G-block (OligoCF-5/20) 2%): 4 µg/mL (≈ 4.79 µM); MIC (MDR Providencia stuartii; G-block (OligoCF-5/20) 6%): 4 µg/mL (≈ 4.79 µM); MIC (MDR Providencia stuartii; G-block (OligoCF-5/20) 10%): 2 µg/mL (≈ 2.39 µM)
2 | C[C@@H](O)[C@H]1C(=O)N2C(C(=O)O)=C(SCCN=CN)C[C@H]12 [Imipenem] | 2 µg/mL (≈ 6.68 µM) | 2 µg/mL (≈ 6.68 µM) | 2 µg/mL (≈ 6.68 µM) | < 2 µg/mL | > 16 µg/mL | > 16 µg/mL | > 16 µg/mL | > 16 µg/mL | 128 µg/mL (≈ 428 µM) | 128 µg/mL (≈ 428 µM) | 64 µg/mL (≈ 214 µM) | 16 µg/mL (≈ 53.4 µM) | < 2 µg/mL | < 2 µg/mL | < 2 µg/mL | < 2 µg/mL | 256 µg/mL (≈ 855 µM) | 256 µg/mL (≈ 855 µM) | 0.0625 µg/mL (≈ 0.209 µM) | 0.0625 µg/mL (≈ 0.209 µM) | MIC ([5]; Pseudomonas aeruginosa): 128 µg/mL (≈ 428 µM); MIC ([5]; Table 8, V2, G-block (OligoCF-5/20) 10%): 128 µg/mL (≈ 428 µM); MIC ([6]; G-block (OligoCF-5/20) 6%): 0.0312 µg/mL (≈ 0.104 µM); MIC ([6]; G-block (OligoCF-5/20) 10%): < 0.0312 µg/mL; MIC (Streptococcus oralis; G-block (OligoCF-5/20) 0%): < 0.0312 µg/mL; MIC (Streptococcus oralis; G-block (OligoCF-5/20) 2%): 16 µg/mL (≈ 53.4 µM); MIC (Streptococcus oralis; G-block (OligoCF-5/20) 6%): 1 µg/mL (≈ 3.34 µM); MIC (Streptococcus oralis; G-block (OligoCF-5/20) 10%): < 0.0312 µg/mL; MIC [7, 9]: 2 µg/mL (≈ 6.68 µM); MIC [7, 10]: 2 µg/mL (≈ 6.68 µM); MIC [7, 11]: 2 µg/mL (≈ 6.68 µM); MIC [7, 12]: < 2 µg/mL; MIC ([8]; G-block (OligoCF-5/20) 0%): < 2 µg/mL; MIC ([8]; G-block (OligoCF-5/20) 2%): < 2 µg/mL; MIC ([8]; G-block (OligoCF-5/20) 6%): < 2 µg/mL; MIC ([8]; G-block (OligoCF-5/20) 10%): < 2 µg/mL; MIC (MDR Providencia stuartii; G-block (OligoCF-5/20) 0%): 16 µg/mL (≈ 53.4 µM); MIC (MDR Providencia stuartii; G-block (OligoCF-5/20) 2%): 16 µg/mL (≈ 53.4 µM); MIC (MDR Providencia stuartii; G-block (OligoCF-5/20) 6%): 16 µg/mL (≈ 53.4 µM); MIC (MDR Providencia stuartii; G-block (OligoCF-5/20) 10%): 8 µg/mL (≈ 26.7 µM)
3 | CC[C@H]1OC(=O)[C@H](C)[C@@H](O[C@H]2C[C@@](C)(OC)[C@@H](O)[C@H](C)O2)[C@H](C)[C@@H](O[C@@H]2O[C@H](C)C[C@H](N(C)C)[C@H]2O)[C@](C)(O)C[C@@H](C)/C(=N\OCOCCOC)[C@H](C)[C@@H](O)[C@]1(C)O [Roxithromycin] | 128 µg/mL (≈ 153 µM) | 32 µg/mL (≈ 38.2 µM) | 16 µg/mL (≈ 19.1 µM) | 16 µg/mL (≈ 19.1 µM) | 256 µg/mL (≈ 306 µM) | 256 µg/mL (≈ 306 µM) | 256 µg/mL (≈ 306 µM) | 128 µg/mL (≈ 153 µM) | > 512 µg/mL | > 512 µg/mL | 512 µg/mL (≈ 612 µM) | 256 µg/mL (≈ 306 µM) | 4 µg/mL (≈ 4.78 µM) | < 1 µg/mL | < 1 µg/mL | < 1 µg/mL | > 512 µg/mL | > 512 µg/mL | > 1020 µg/mL | 1020 µg/mL (≈ 1220 µM) | MIC [5, 23]: > 512 µg/mL; MIC [5, 24]: > 512 µg/mL; MIC ([6]; G-block (OligoCF-5/20) 6%): 512 µg/mL (≈ 612 µM); MIC ([6]; G-block (OligoCF-5/20) 10%): 256 µg/mL (≈ 306 µM); MIC (Streptococcus oralis; G-block (OligoCF-5/20) 0%): 8 µg/mL (≈ 9.56 µM); MIC (Streptococcus oralis; G-block (OligoCF-5/20) 2%): 8 µg/mL (≈ 9.56 µM); MIC (Streptococcus oralis; G-block (OligoCF-5/20) 6%): 0.0312 µg/mL (≈ 0.0373 µM); MIC (Streptococcus oralis; G-block (OligoCF-5/20) 10%): 16 µg/mL (≈ 19.1 µM); MIC [7, 9]: 4 µg/mL (≈ 4.78 µM); MIC [7, 10]: < 2 µg/mL; MIC [7, 11]: < 2 µg/mL; MIC [7, 12]: < 2 µg/mL; MIC ([8]; G-block (OligoCF-5/20) 0%): 512 µg/mL (≈ 612 µM); MIC ([8]; G-block (OligoCF-5/20) 2%): 128 µg/mL (≈ 153 µM); MIC ([8]; G-block (OligoCF-5/20) 6%): 256 µg/mL (≈ 306 µM); MIC ([8]; G-block (OligoCF-5/20) 10%): 512 µg/mL (≈ 612 µM); MIC (MDR Providencia stuartii; G-block (OligoCF-5/20) 0%): 64 µg/mL (≈ 76.5 µM); MIC (MDR Providencia stuartii; G-block (OligoCF-5/20) 2%): 32 µg/mL (≈ 38.2 µM); MIC (MDR Providencia stuartii; G-block (OligoCF-5/20) 6%): 32 µg/mL (≈ 38.2 µM); MIC (MDR Providencia stuartii; G-block (OligoCF-5/20) 10%): 32 µg/mL (≈ 38.2 µM)

From US9801901B2, “Alginate oligomers for use in overcoming multidrug resistance in bacteria” (priority 2009, dated 2017)
